# Assay results: ChEMBL document CHEMBL1671626, “In vitro profiling of ceftaroline against a collection of recent bacterial clinical isolates from across the United States” (2008)
# Tests used:
# Format in all cases: functional
# Morganella morganii [1] = experiment: Antibacterial activity against ceftazidime-susceptible Morganella morganii assessed as susceptible isolates by CLSI M7-A7 broth microdilution method
# Staphylococcus aureus [2] = experiment: Antibacterial activity against coagulase-negative and oxacillin-susceptible Staphylococcus aureus assessed as resistant isolates by CLSI M7-A7 broth microdilution method
# Enterococcus faecalis [3] = experiment: Antibacterial activity against vancomycin-susceptible Enterococcus faecalis by CLSI M7-A7 broth microdilution method
# Klebsiella pneumoniae [4] = experiment: Antibacterial activity against ceftazidime-susceptible Klebsiella pneumoniae assessed as resistant isolates by CLSI M7-A7 broth microdilution method
# Klebsiella pneumoniae [5] = experiment: Antibacterial activity against ceftazidime-nonsusceptible Klebsiella pneumoniae assessed as susceptible isolates by CLSI M7-A7 broth microdilution method
# Haemophilus influenzae [6] = experiment: Antibacterial activity against beta lactamase-negative Haemophilus influenzae assessed as susceptible isolates by CLSI M7-A7 broth microdilution method
# Citrobacter freundii [7] = experiment: Antibacterial activity against ceftazidime-nonsusceptible Citrobacter freundii by CLSI M7-A7 broth microdilution method
# Serratia marcescens [8] = experiment: Antibacterial activity against ceftazidime-susceptible Serratia marcescens assessed as susceptible isolates by CLSI M7-A7 broth microdilution method
# Haemophilus influenzae [9] = experiment: Antibacterial activity against beta lactamase-positive Haemophilus influenzae assessed as susceptible isolates by CLSI M7-A7 broth microdilution method
# Serratia marcescens [10] = experiment: Antibacterial activity against ceftazidime-susceptible Serratia marcescens by CLSI M7-A7 broth microdilution method
# Staphylococcus aureus [11] = experiment: Antibacterial activity against methicillin-susceptible Staphylococcus aureus assessed as susceptible isolates by CLSI M7-A7 broth microdilution method
# Acinetobacter [12] = experiment: Antibacterial activity against multidrug-resistant Acinetobacter assessed as susceptible isolates by CLSI M7-A7 broth microdilution method
# Streptococcus agalactiae [13] = experiment: Antibacterial activity against erythromycin-susceptible Streptococcus agalactiae by CLSI M7-A7 broth microdilution method
# Acinetobacter [14] = experiment: Antibacterial activity against multidrug-resistant Acinetobacter by CLSI M7-A7 broth microdilution method
# Staphylococcus aureus [15] = experiment: Antibacterial activity against coagulase-negative and oxacillin-resistant Staphylococcus aureus by CLSI M7-A7 broth microdilution method
# Providencia sp. [16] = experiment: Antibacterial activity against ceftazidime-susceptible Providencia sp. assessed as susceptible isolates by CLSI M7-A7 broth microdilution method
# Proteus mirabilis = experiment: Antibacterial activity against ceftazidime-susceptible Proteus mirabilis by CLSI M7-A7 broth microdilution method
# Acinetobacter [17] = experiment: Antibacterial activity against imipenem-susceptible Acinetobacter by CLSI M7-A7 broth microdilution method
# Staphylococcus aureus [18] = experiment: Antibacterial activity against methicillin-susceptible Staphylococcus aureus assessed as resistant isolates by CLSI M7-A7 broth microdilution method
# Enterobacteriaceae [19] = experiment: Antibacterial activity against ceftazidime-nonsusceptible Enterobacteriaceae assessed as susceptible isolates by CLSI M7-A7 broth microdilution method
# Citrobacter freundii [20] = experiment: Antibacterial activity against ceftazidime-susceptible Citrobacter freundii assessed as resistant isolates by CLSI M7-A7 broth microdilution method
# Citrobacter freundii [21] = experiment: Antibacterial activity against ceftazidime-susceptible Citrobacter freundii assessed as susceptible isolates by CLSI M7-A7 broth microdilution method
# Serratia marcescens [22] = experiment: Antibacterial activity against ceftazidime-susceptible Serratia marcescens assessed as resistant isolates by CLSI M7-A7 broth microdilution method
# Citrobacter freundii [23] = experiment: Antibacterial activity against ceftazidime-nonsusceptible Citrobacter freundii assessed as resistant isolates by CLSI M7-A7 broth microdilution method
# Enterobacter cloacae = experiment: Antibacterial activity against ceftazidime-nonsusceptible Enterobacter cloacae assessed as susceptible isolates by CLSI M7-A7 broth microdilution method
# Escherichia coli [24] = experiment: Antibacterial activity against ceftazidime-nonsusceptible Escherichia coli by CLSI M7-A7 broth microdilution method
# Providencia sp. [25] = experiment: Antibacterial activity against ceftazidime-susceptible Providencia sp. assessed as resistant isolates by CLSI M7-A7 broth microdilution method
# Staphylococcus aureus [26] = experiment: Antibacterial activity against methicillin-susceptible Staphylococcus aureus by CLSI M7-A7 broth microdilution method
# Enterobacteriaceae [27] = experiment: Antibacterial activity against ceftazidime-susceptible Enterobacteriaceae assessed as resistant isolates by CLSI M7-A7 broth microdilution method
# Escherichia coli [28] = experiment: Antibacterial activity against ceftazidime-susceptible Escherichia coli assessed as resistant isolates by CLSI M7-A7 broth microdilution method
# Citrobacter freundii [29] = experiment: Antibacterial activity against ceftazidime-susceptible Citrobacter freundii by CLSI M7-A7 broth microdilution method
# Citrobacter freundii [30] = experiment: Antibacterial activity against ceftazidime-nonsusceptible Citrobacter freundii assessed as susceptible isolates by CLSI M7-A7 broth microdilution method
# Enterococcus faecalis [31] = experiment: Antibacterial activity against vancomycin-resistant Enterococcus faecalis by CLSI M7-A7 broth microdilution method
# Morganella morganii [32] = experiment: Antibacterial activity against ceftazidime-susceptible Morganella morganii assessed as resistant isolates by CLSI M7-A7 broth microdilution method
# Moraxella catarrhalis = experiment: Antibacterial activity against beta lactamase-positive Moraxella catarrhalis by CLSI M7-A7 broth microdilution method
# Staphylococcus aureus [33] = experiment: Antibacterial activity against coagulase-negative and oxacillin-susceptible Staphylococcus aureus by CLSI M7-A7 broth microdilution method
# Staphylococcus aureus [34] = experiment: Antibacterial activity against coagulase-negative and oxacillin-resistant Staphylococcus aureus assessed as susceptible isolates by CLSI M7-A7 broth microdilution method
# Acinetobacter [35] = experiment: Antibacterial activity against multidrug-resistant Acinetobacter assessed as resistant isolates by CLSI M7-A7 broth microdilution method
# Streptococcus pyogenes [36] = experiment: Antibacterial activity against erythromycin-nonsusceptible Streptococcus pyogenes assessed as susceptible isolates by CLSI M7-A7 broth microdilution method
# Streptococcus agalactiae [37] = experiment: Antibacterial activity against erythromycin-nonsusceptible Streptococcus agalactiae assessed as susceptible isolates by CLSI M7-A7 broth microdilution method
# Streptococcus viridans [38] = experiment: Antibacterial activity against penicillin-susceptible Streptococcus viridans assessed as susceptible isolates by CLSI M7-A7 broth microdilution method
# Streptococcus agalactiae [39] = experiment: Antibacterial activity against erythromycin-susceptible Streptococcus agalactiae assessed as susceptible isolates by CLSI M7-A7 broth microdilution method
# Pasteurella multocida = experiment: Antibacterial activity against Pasteurella multocida assessed as susceptible isolates by CLSI M7-A7 broth microdilution method
# Streptococcus pyogenes [40] = experiment: Antibacterial activity against erythromycin-susceptible Streptococcus pyogenes assessed as susceptible isolates by CLSI M7-A7 broth microdilution method
# Streptococcus viridans [41] = experiment: Antibacterial activity against penicillin-susceptible Streptococcus viridans assessed as resistant isolates by CLSI M7-A7 broth microdilution method
compound,measurement,setting,value
C[C@@H](O)[C@H]1C(=O)N2C(C(=O)O)=C(SCCNC=N)C[C@H]12 [IMIPENEM ANHYDROUS],Activity,Morganella morganii [1],100%
same,Activity,Staphylococcus aureus [2],0%
same,MIC50,Enterococcus faecalis [3],1 µg/mL
same,MIC90,Enterococcus faecalis [3],2 µg/mL
same,Activity,Klebsiella pneumoniae [4],0%
same,Activity,Klebsiella pneumoniae [5],80.3%
same,Activity,Haemophilus influenzae [6],100%
same,MIC50,Citrobacter freundii [7],0.5 µg/mL
same,MIC90,Citrobacter freundii [7],1 µg/mL
same,Activity,Serratia marcescens [8],100%
same,Activity,Haemophilus influenzae [9],100%
same,MIC50,Serratia marcescens [10],0.5 µg/mL
same,MIC90,Serratia marcescens [10],1 µg/mL
same,Activity,Staphylococcus aureus [11],99.7%
same,Activity,Acinetobacter [12],68.8%
same,MIC,Streptococcus agalactiae [13],≤ 0.015 µg/mL
same,MIC50,Streptococcus agalactiae [13],≤ 0.015 µg/mL
same,MIC90,Streptococcus agalactiae [13],0.03 µg/mL
same,MIC50,Acinetobacter [14],0.5 µg/mL
same,MIC90,Acinetobacter [14],32 µg/mL
same,MIC50,Staphylococcus aureus [15],0.5 µg/mL
same,MIC90,Staphylococcus aureus [15],16 µg/mL
same,Activity,Providencia sp. [16],100%
same,MIC50,Proteus mirabilis,2 µg/mL
same,MIC90,Proteus mirabilis,4 µg/mL
same,MIC50,Acinetobacter [17],0.25 µg/mL
same,MIC90,Acinetobacter [17],0.5 µg/mL
same,Activity,Staphylococcus aureus [18],0.3%
same,Activity,Enterobacteriaceae [19],92.3%
same,Activity,Citrobacter freundii [20],0%
same,Activity,Citrobacter freundii [21],100%
same,Activity,Serratia marcescens [22],0%
same,Activity,Citrobacter freundii [23],0%
same,Activity,Enterobacter cloacae,97.1%
same,MIC50,Escherichia coli [24],0.25 µg/mL
same,MIC90,Escherichia coli [24],1 µg/mL
same,Activity,Providencia sp. [25],0%
same,MIC,Staphylococcus aureus [26],≤ 0.12 µg/mL
same,MIC50,Staphylococcus aureus [26],≤ 0.12 µg/mL
same,MIC90,Staphylococcus aureus [26],≤ 0.12 µg/mL
same,Activity,Enterobacteriaceae [27],0%
same,Activity,Escherichia coli [28],0%
same,MIC50,Citrobacter freundii [29],0.5 µg/mL
same,MIC90,Citrobacter freundii [29],1 µg/mL
same,Activity,Citrobacter freundii [30],100%
same,MIC50,Enterococcus faecalis [31],1 µg/mL
same,MIC90,Enterococcus faecalis [31],2 µg/mL
same,Activity,Morganella morganii [32],0%
same,MIC,Moraxella catarrhalis,≤ 0.12 µg/mL
same,MIC50,Moraxella catarrhalis,≤ 0.12 µg/mL
same,MIC90,Moraxella catarrhalis,≤ 0.12 µg/mL
same,MIC,Staphylococcus aureus [33],≤ 0.12 µg/mL
same,MIC50,Staphylococcus aureus [33],≤ 0.12 µg/mL
same,MIC90,Staphylococcus aureus [33],≤ 0.12 µg/mL
same,Activity,Staphylococcus aureus [34],77.3%
same,Activity,Acinetobacter [35],31.3%
CO/N=C(\C(=O)N[C@@H]1C(=O)N2C(C(=O)O)=C(CSc3nc(=O)c(O)nn3C)CS[C@H]12)c1csc(N)n1 [CEFTRIAXONE],Activity,Morganella morganii [1],100%
same,Activity,Staphylococcus aureus [2],0%
same,MIC50,Enterococcus faecalis [3],> 32 µg/mL
same,MIC90,Enterococcus faecalis [3],> 32 µg/mL
same,Activity,Klebsiella pneumoniae [4],0%
same,Activity,Klebsiella pneumoniae [5],12.1%
same,Activity,Haemophilus influenzae [6],100%
same,Activity,Streptococcus pyogenes [36],100%
same,MIC50,Citrobacter freundii [7],> 16 µg/mL
same,MIC90,Citrobacter freundii [7],> 16 µg/mL
same,Activity,Serratia marcescens [8],93.2%
same,Activity,Haemophilus influenzae [9],100%
same,Activity,Streptococcus agalactiae [37],97.6%
same,MIC50,Serratia marcescens [10],0.25 µg/mL
same,MIC90,Serratia marcescens [10],4 µg/mL
same,Activity,Staphylococcus aureus [11],97.1%
same,Activity,Acinetobacter [12],0%
same,Activity,Streptococcus viridans [38],100%
same,MIC50,Streptococcus agalactiae [13],0.06 µg/mL
same,MIC90,Streptococcus agalactiae [13],0.12 µg/mL
same,MIC,Acinetobacter [14],> 16 µg/mL
same,MIC50,Acinetobacter [14],> 16 µg/mL
same,MIC50,Staphylococcus aureus [15],16 µg/mL
same,MIC90,Staphylococcus aureus [15],> 32 µg/mL
same,Activity,Providencia sp. [16],100%
same,MIC50,Proteus mirabilis,≤ 0.06 µg/mL
same,MIC90,Proteus mirabilis,0.12 µg/mL
same,MIC50,Acinetobacter [17],16 µg/mL
same,MIC90,Acinetobacter [17],> 16 µg/mL
same,Activity,Streptococcus agalactiae [39],100%
same,Activity,Staphylococcus aureus [18],0.3%
same,Activity,Enterobacteriaceae [19],13.2%
same,Activity,Citrobacter freundii [20],0%
same,Activity,Pasteurella multocida,100%
same,Activity,Citrobacter freundii [21],100%
same,Activity,Serratia marcescens [22],0%
same,Activity,Citrobacter freundii [23],0%
same,Activity,Streptococcus pyogenes [40],100%
same,Activity,Enterobacter cloacae,8.6%
same,MIC50,Escherichia coli [24],> 16 µg/mL
same,MIC90,Escherichia coli [24],> 16 µg/mL
same,Activity,Providencia sp. [25],0%
same,Activity,Streptococcus viridans [41],0%
same,MIC50,Staphylococcus aureus [26],2 µg/mL
same,MIC90,Staphylococcus aureus [26],4 µg/mL
same,Activity,Enterobacteriaceae [27],0%
same,Activity,Escherichia coli [28],0%
same,MIC50,Citrobacter freundii [29],0.12 µg/mL
same,MIC90,Citrobacter freundii [29],0.5 µg/mL
same,Activity,Citrobacter freundii [30],6.1%
same,MIC,Enterococcus faecalis [31],> 1 µg/mL
same,Activity,Morganella morganii [32],0%
same,MIC,Moraxella catarrhalis,≤ 0.25 µg/mL
same,MIC50,Moraxella catarrhalis,≤ 0.25 µg/mL
same,MIC90,Moraxella catarrhalis,1 µg/mL
same,MIC50,Staphylococcus aureus [33],1 µg/mL
same,MIC90,Staphylococcus aureus [33],4 µg/mL
same,Activity,Staphylococcus aureus [34],27.1%
same,Activity,Acinetobacter [35],0%
